Assay results as given in patent publication US20250195521A1 (Revolution Medicines, Inc., priority 2020, published 2025).
Where two headings read alike, the source gives them in different places.

Columns and labels:
[1] = tested on: AsPC-1 (K-Ras G12D); experiment: Potency assay: pERK; type: cell-based, human; conditions: Homo sapiens
Procedure: The purpose of this assay is to measure the ability of test compounds to inhibit K-Ras in cells. […] This procedure measures a decrease in cellular pERK in response to test compounds. The procedure described below in NCI-H358 cells is applicable to K-Ras G12C.
NCI-H358 cells were grown and maintained using media and procedures recommended by the ATCC. On the day prior to compound addition, cells were plated in 384-well cell culture plates (40 μl/well) and grown overnight in a 37° C., 5% CO2 incubator. Test compounds were prepared in 10, 3-fold dilutions in DMSO, with a high concentration of 10 mM. On the day of assay, 40 nL of test compound was added to each well of cell culture plate using an Echo550 liquid handler (LabCyte®). Concentrations of test compound were tested in duplicate. After compound addition, cells were incubated 4 hours at 37° C., 5% CO2. Following incubation, culture medium was removed and cells were washed once with phosphate buffered saline.
In some experiments, cellular pERK level was determined using the AlphaLISA SureFire Ultra p-ERK1/2 Assay Kit (PerkinElmer). Cells were lysed in 25 μL lysis buffer, with shaking at 600 RPM at room temperature. Lysate (10 μL) was transferred to a 384-well Opti-plate (PerkinElmer) and 5 μL acceptor mix was added. After a 2-hour incubation in the dark, 5 μL donor mix was added, plate was sealed, and incubated 2 hours at room temperature. Signal was read on an Envision plate reader (PerkinElmer) using standard AlphaLISA settings. Analysis of raw data was carried out in Excel (Microsoft) and Prism (GraphPad). Signal was plotted vs. the decadal logarithm of compound concentration, and IC50 was determined by fitting a 4-parameter sigmoidal concentration response model.
In other experiments, cellular pERK was determined by In-Cell Western. Following compound treatment, cells were washed twice with 200 μL tris buffered saline (TBS) and fixed for 15 minutes with 150 μL 4% paraformaldehyde in TBS. Fixed cells were washed 4 times for 5 minutes with TBS containing 0.1% Triton X-100 (TBST) and then blocked with 100 μL Odyssey blocking buffer (LI-COR) for 60 minutes at room temperature. Primary antibody (PERK, CST-4370, Cell Signaling Technology) was diluted 1:200 in blocking buffer, and 50 μL was added to each well and incubated overnight at 4° C. Cells were washed 4 times for 5 minutes with TBST. Secondary antibody (IR-800CW rabbit, LI-COR, diluted 1:800) and DNA stain DRAQ5 (LI-COR, diluted 1:2000) were added and incubated 1-2 hours at room temperature. Cells were washed 4 times for 5 minutes with TBST. Plates were scanned on a Li—COR Odyssey CLx Imager. Analysis of raw data was carried out in Excel (Microsoft) and Prism (GraphPad). Signal was plotted vs. the decadal logarithm of compound concentration, and IC50 was determined by fitting a 4-parameter sigmoidal concentration response model.

[2] = tested on: Capan-1 cells (K-Ras G12V); experiment: CellTiter-Glo cell viability, Capan-1; type: cell-based, human; conditions: Homo sapiens, CAPAN-1, 120 h, K-Ras G12V, 5-day treatment; read-out: Capan-1 Cell Viability IC50
Summary of the method: (§1)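 Luminescence read on day 5 after ~30 min room-temperature equilibration; compounds added directly to plated cells. Values = (sample signal/avg DMSO)*100, four-parameter logistic fit.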

[3] = target: KRAS G12D (Homo sapiens (Human), UniProt P01116+P62937, G12D); experiment: Ras-Raf disruption/FRET/MOA assay (BRAF RBD, Cyclophilin A); type: biochemical; conditions: read-out: KRAS G12D FRET IC50
Sequence of KRAS G12D (P01116 other isoform, or with tags, fused parts or gaps G12D): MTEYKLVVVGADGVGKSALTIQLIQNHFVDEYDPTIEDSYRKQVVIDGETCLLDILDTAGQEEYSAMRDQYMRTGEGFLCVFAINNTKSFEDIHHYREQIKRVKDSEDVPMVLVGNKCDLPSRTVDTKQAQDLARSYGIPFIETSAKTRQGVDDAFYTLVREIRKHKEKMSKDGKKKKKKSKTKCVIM
Sequence of KRAS G12D (P62937 whole entry): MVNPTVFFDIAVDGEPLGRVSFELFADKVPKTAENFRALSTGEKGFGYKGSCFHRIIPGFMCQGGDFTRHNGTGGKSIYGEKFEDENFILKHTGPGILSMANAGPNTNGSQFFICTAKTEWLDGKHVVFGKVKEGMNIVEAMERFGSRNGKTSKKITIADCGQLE
Summary of the method: (§2)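 TR-FRET readout: anti-His Eu-W1024 (10 nM) and anti-GST allophycocyanin (50 nM) added after 3 h, 25° C compound incubation, then 1.5 h more. Decrease in FRET ratio versus DMSO wells marks Ras:RAF disruption; IC50 reported.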

[4] = target: KRAS G12S (Homo sapiens (Human), UniProt P01116+P62937, G12S); experiment: as above; type: biochemical; conditions: read-out: KRAS G12S FRET IC50
Sequence of KRAS G12S (P01116 other isoform, or with tags, fused parts or gaps G12S): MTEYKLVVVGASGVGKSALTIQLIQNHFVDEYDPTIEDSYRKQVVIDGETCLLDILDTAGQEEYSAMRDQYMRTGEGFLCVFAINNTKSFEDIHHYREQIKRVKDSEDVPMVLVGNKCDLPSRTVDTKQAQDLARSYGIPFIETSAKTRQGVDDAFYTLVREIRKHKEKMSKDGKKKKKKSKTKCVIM
Sequence of KRAS G12S (P62937 whole entry): as the sequence (P62937 whole entry) above
Summary of the method: as §2

[5] = target: KRAS G12V (Homo sapiens (Human), UniProt P01116+P62937, G12V); experiment: as above; type: biochemical; conditions: read-out: KRAS G12V FRET IC50
Sequence of KRAS G12V (P01116 other isoform, or with tags, fused parts or gaps G12V): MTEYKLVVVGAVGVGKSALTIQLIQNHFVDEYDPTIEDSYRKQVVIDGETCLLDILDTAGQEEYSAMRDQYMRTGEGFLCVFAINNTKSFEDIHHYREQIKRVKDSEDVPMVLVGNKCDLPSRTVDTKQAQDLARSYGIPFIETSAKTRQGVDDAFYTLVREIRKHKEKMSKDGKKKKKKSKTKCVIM
Sequence of KRAS G12V (P62937 whole entry): as the sequence (P62937 whole entry) above
Summary of the method: as §2

[6] = target: KRAS G13C (Homo sapiens (Human), UniProt P01116+P62937, G13C); experiment: as above; type: biochemical; conditions: read-out: KRAS G13C FRET IC50
Sequence of KRAS G13C (P01116 other isoform, or with tags, fused parts or gaps G13C): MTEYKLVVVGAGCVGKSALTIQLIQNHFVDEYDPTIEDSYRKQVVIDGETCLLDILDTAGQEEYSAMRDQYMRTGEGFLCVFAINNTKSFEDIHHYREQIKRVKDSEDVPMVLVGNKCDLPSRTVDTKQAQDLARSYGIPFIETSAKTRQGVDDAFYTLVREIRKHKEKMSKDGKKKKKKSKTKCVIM
Sequence of KRAS G13C (P62937 whole entry): as the sequence (P62937 whole entry) above
Summary of the method: as §2

[7] = target: KRAS G13D (Homo sapiens (Human), UniProt P01116+P62937, G13D); experiment: as above; type: biochemical; conditions: read-out: KRAS G13D FRET data IC50
Sequence of KRAS G13D (P01116 other isoform, or with tags, fused parts or gaps G13D): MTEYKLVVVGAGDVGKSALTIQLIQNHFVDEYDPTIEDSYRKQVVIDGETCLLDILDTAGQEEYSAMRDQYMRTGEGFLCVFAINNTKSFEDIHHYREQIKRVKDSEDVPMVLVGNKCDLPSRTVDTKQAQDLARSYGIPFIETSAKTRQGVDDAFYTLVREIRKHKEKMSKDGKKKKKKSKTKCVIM
Sequence of KRAS G13D (P62937 whole entry): as the sequence (P62937 whole entry) above
Summary of the method: as §2

[8] = target: KRAS WT (Homo sapiens (Human), UniProt P01116+P62937); experiment: as above; type: biochemical; conditions: read-out: KRAS WT FRET data IC50
Sequence of KRAS WT (P01116 other isoform, or with tags, fused parts or gaps): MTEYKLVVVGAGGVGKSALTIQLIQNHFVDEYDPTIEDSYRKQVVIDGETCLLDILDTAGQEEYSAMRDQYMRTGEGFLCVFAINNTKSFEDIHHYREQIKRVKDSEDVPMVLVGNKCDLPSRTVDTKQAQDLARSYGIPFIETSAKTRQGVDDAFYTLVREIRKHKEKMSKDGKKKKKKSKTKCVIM
Sequence of KRAS WT (P62937 whole entry): as the sequence (P62937 whole entry) above
Summary of the method: as §2

[9] = target: NRAS G12C (Homo sapiens (Human), UniProt P01111+P62937, G12C); experiment: as above; type: biochemical; conditions: read-out: NRAS G12C FRET data IC50
Sequence of NRAS G12C (P01111 whole entry G12C): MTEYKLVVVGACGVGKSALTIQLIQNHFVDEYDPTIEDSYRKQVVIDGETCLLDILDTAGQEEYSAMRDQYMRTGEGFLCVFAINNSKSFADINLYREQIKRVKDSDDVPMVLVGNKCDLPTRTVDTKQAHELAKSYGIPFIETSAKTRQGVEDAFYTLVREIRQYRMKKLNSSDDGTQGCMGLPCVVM
Sequence of NRAS G12C (P62937 whole entry): as the sequence (P62937 whole entry) above
Summary of the method: (§3)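 Measured: compound-facilitated Cyclophilin A:Ras complex blocking RAF RBD binding. Conditions: 12.5 nM Ras-GMPPNP, 50 nM BRAF RBD, 25 μM CypA, 3 h plus 1.5 h detection. Output: IC50 from TR-FRET ratio.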

[10] = target: NRAS Q61K (Homo sapiens (Human), UniProt P01111+P62937, Q61K); experiment: as above; type: biochemical
Sequence of NRAS Q61K (P01111 whole entry Q61K): as the sequence (P01111 whole entry G12C) above, with C12G, Q61K counted along it
Sequence of NRAS Q61K (P62937 whole entry): as the sequence (P62937 whole entry) above
Summary of the method: as §3

[11] = target: NRAS WT (Homo sapiens (Human), UniProt P01111+P62937); experiment: as above; type: biochemical
Sequence of NRAS WT (P01111 whole entry): as the sequence (P01111 whole entry G12C) above, with C12G counted along it
Sequence of NRAS WT (P62937 whole entry): as the sequence (P62937 whole entry) above
Summary of the method: as §3

[12] = tested on: NCI-H358 cells (K-Ras G12C); experiment: CellTiter-Glo cell viability, NCI-H358; type: cell-based, human; conditions: Homo sapiens, NCI-H358, 120 h, K-Ras G12C, 5-day treatment; read-out: H358 Cell Viability IC50
Summary of the method: as §1

[13] = target: KRAS G12C (Homo sapiens (Human), UniProt P01116+P62937, G12C); experiment: Ras-Raf disruption/FRET/MOA assay (BRAF RBD, Cyclophilin A); type: biochemical; conditions: read-out: KRAS G12C FRET IC50
Sequence of KRAS G12C (P01116-2 other isoform, or with tags, fused parts or gaps G12C): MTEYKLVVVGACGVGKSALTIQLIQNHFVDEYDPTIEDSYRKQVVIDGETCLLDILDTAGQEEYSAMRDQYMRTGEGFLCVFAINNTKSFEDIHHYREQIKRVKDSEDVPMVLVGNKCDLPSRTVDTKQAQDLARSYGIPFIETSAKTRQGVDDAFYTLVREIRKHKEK
Sequence of KRAS G12C (P62937 whole entry): as the sequence (P62937 whole entry) above
Summary of the method: as §2

[14] = target: KRAS Q61H (Homo sapiens (Human), UniProt P01116+P62937, Q61H); experiment: as above; type: biochemical
Sequence of KRAS Q61H (P01116 other isoform, or with tags, fused parts or gaps Q61H): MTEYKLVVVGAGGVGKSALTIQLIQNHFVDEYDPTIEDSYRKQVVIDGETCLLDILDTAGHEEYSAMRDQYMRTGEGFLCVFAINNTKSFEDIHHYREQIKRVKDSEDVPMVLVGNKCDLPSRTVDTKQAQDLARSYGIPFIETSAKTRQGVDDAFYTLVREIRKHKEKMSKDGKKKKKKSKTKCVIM
Sequence of KRAS Q61H (P62937 whole entry): as the sequence (P62937 whole entry) above
Summary of the method: as §2

[15] = target: NRAS Q61R (Homo sapiens (Human), UniProt P01111+P62937, Q61R); experiment: as above; type: biochemical
Sequence of NRAS Q61R (P01111 whole entry Q61R): as the sequence (P01111 whole entry G12C) above, with C12G, Q61R counted along it
Sequence of NRAS Q61R (P62937 whole entry): as the sequence (P62937 whole entry) above
Summary of the method: as §3

[16] = tested on: K-Ras G12C (NCI-H358 cells); experiment: Potency assay: pERK in NCI-H358 cells; type: cell-based, human; conditions: Homo sapiens; NCI-H358 cells, 4 hours; read-out: pERK EC50 (H358 KRAS G12C)
Summary of the method: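 Cells plated the day before were exposed for 4 h at 37° C, 5% CO2 to a 10-point, 3-fold DMSO dilution series (10 mM top stock), in duplicate. Phospho-ERK was read by AlphaLISA SureFire Ultra or by In-Cell Western with DRAQ5 DNA stain, and IC50 came from a 4-parameter sigmoidal fit.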

| SMILES | IC50 [3] | IC50 [4] | IC50 [5] | IC50 [6] | IC50 [7] | IC50 [8] | IC50 [9] | IC50 [11] | IC50 [12] | IC50 [13] | IC50 [14] | IC50 [15] | EC50 [16] | EC50 ([1]; ASPC1, AsPC-1 KRAS G12D, read-out: pERK EC50) | IC50 [2] | IC50 [10] | EC50 ([1]; ASPC1, read-out: pERK EC50) |
| --- | --- | --- | --- | --- | --- | --- | --- | --- | --- | --- | --- | --- | --- | --- | --- | --- | --- |
| CCn1c(-c2cccnc2[C@H](C)OC)c2c3cc(ccc31)-c1cc(O)cc(c1)C[C@H](NC(=O)[C@H](C(C)C)N(C)C(=O)N1CCN(C(=O)[C@@H]3CN3)CC1)C(=O)N1CCC[C@H](N1)C(=O)OCC(C)(C)C2 (atropisomer, axis not shown) [Example 197] | – | – | – | – | – | – | – | – | – | – | – | – | – | < 5000 nM | – | – | – |
| CCn1c(-c2cccnc2[C@H](C)OC)c2c3cc(ccc31)-c1csc(n1)C[C@H](NC(=O)[C@H](C(C)C)N1CCC3(CN(S(C)(=O)=O)C3)C1=O)C(=O)N1CCC[C@H](N1)C(=O)OCC(C)(C)C2 [Compound A234] | > 10000 nM | > 10000 nM | > 10000 nM | 1000 to 10000 nM | > 10000 nM | 1000 to 10000 nM | > 10000 nM | 1000 to 10000 nM | – | – | – | – | – | – | > 10000 nM | 1000 to 10000 nM | – |
| CCn1c(-c2cccnc2[C@H](C)OC)c2c3cc(ccc31)-c1cc(O)cc(c1)C[C@H](NC(=O)[C@H](C(C)C)N(C)C(=O)CN(C)C(=O)[C@H]1CN1)C(=O)N1CCC[C@H](N1)C(=O)OCC(C)(C)C2 [Example 42A] | – | – | – | – | – | – | – | – | – | – | – | – | – | – | – | – | < 5000 nM |

Now from value to molecule, other results behind:

| IC50 [3] | IC50 [4] | IC50 [5] | IC50 [6] | IC50 [7] | IC50 [8] | IC50 [9] | IC50 [11] | IC50 [12] | IC50 [13] | IC50 [14] | IC50 [15] | EC50 [16] | SMILES | EC50 ([1]; ASPC1, AsPC-1 KRAS G12D, read-out: pERK EC50) | IC50 [2] | IC50 [10] | EC50 ([1]; ASPC1, read-out: pERK EC50) |
| --- | --- | --- | --- | --- | --- | --- | --- | --- | --- | --- | --- | --- | --- | --- | --- | --- | --- |
| 100 to 1000 nM | 100 to 1000 nM | 100 to 1000 nM | 100 to 1000 nM | 100 to 1000 nM | 100 to 1000 nM | 10 to 100 nM | 100 to 1000 nM | 100 to 1000 nM | 10 to 100 nM | 10 to 100 nM | 100 to 1000 nM | < 5000 nM | CCn1c(-c2cccnc2[C@H](C)OC)c2c3cc(ccc31)-c1csc(n1)C[C@H](NC(=O)[C@H](C(C)C)N(C)C(=O)N1C[C@H](N)[C@@H](O)C1)C(=O)N1CCC[C@H](N1)C(=O)OCC(C)(C)C2 [Compound A581] | – | 1000 to 10000 nM | – | – |
| 100 to 1000 nM | 100 to 1000 nM | 100 to 1000 nM | 100 to 1000 nM | 100 to 1000 nM | 100 to 1000 nM | 10 to 100 nM | 100 to 1000 nM | 10 to 100 nM | 10 to 100 nM | 10 to 100 nM | 100 to 1000 nM | < 5000 nM | CCn1c(-c2cccnc2[C@H](C)OC)c2c3cc(ccc31)-c1csc(n1)C[C@H](NC(=O)[C@H](C(C)C)N(C)C(=O)N1CCO[C@H](c3ccccc3)C1)C(=O)N1CCC[C@H](N1)C(=O)OCC(C)(C)C2 [Compound A582] | – | 100 to 1000 nM | – | – |
| 100 to 1000 nM | 100 to 1000 nM | 100 to 1000 nM | 100 to 1000 nM | 100 to 1000 nM | 10 to 100 nM | 10 to 100 nM | 10 to 100 nM | 100 to 1000 nM | 10 to 100 nM | 10 to 100 nM | 100 to 1000 nM | < 5000 nM | CCn1c(-c2cccnc2[C@H](C)OC)c2c3cc(ccc31)-c1csc(n1)C[C@H](NC(=O)[C@H](C(C)C)N(C)C(=O)N1CCO[C@@H](c3ccccc3)C1)C(=O)N1CCC[C@H](N1)C(=O)OCC(C)(C)C2 [Compound A600] | – | 100 to 1000 nM | – | – |
